Measured values from ChEMBL document CHEMBL1287744, “Potent and selective 5-LO inhibitor bearing benzothiophene pharmacophore: discovery of MK-5286” (Bioorg Med Chem Lett, 2010).
pIC50, pKi: −log10 of the molar value. Activity calls are given as the source filed them. The calls are words filed in the database; no cut-off is given here.

Experiments:
[1] = target: T1, Polyunsaturated fatty acid 5-lipoxygenase (Homo sapiens, UniProt P09917); experiment: Inhibition of human recombinant 5-lipoxygenase assessed as arachidonic acid oxidation
T1 sequence (P09917 whole entry): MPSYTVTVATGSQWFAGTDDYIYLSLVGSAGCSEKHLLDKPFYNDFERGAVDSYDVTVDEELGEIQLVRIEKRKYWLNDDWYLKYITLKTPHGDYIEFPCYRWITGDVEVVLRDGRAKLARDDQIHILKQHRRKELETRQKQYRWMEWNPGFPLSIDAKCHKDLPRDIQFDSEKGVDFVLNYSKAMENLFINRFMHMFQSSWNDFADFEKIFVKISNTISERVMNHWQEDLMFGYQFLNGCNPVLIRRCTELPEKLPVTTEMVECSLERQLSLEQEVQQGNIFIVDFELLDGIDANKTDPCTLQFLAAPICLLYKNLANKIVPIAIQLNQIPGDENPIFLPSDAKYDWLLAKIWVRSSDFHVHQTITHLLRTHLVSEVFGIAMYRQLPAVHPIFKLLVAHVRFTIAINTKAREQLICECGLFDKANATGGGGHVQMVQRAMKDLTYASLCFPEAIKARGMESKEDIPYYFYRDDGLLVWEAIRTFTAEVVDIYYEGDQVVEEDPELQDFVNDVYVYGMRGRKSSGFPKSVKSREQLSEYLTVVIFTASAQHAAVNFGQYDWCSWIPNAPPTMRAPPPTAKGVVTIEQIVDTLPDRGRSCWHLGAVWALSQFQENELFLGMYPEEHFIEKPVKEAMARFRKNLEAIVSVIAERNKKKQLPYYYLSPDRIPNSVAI

[2] = target: T1, Polyunsaturated fatty acid 5-lipoxygenase; experiment: Inhibition of 5-lipoxygenase in human whole blood assessed as inhibition of LTB4 production; format: tissue-based
[3] = target: T2, Polyunsaturated fatty acid lipoxygenase ALOX12 (Homo sapiens, UniProt P18054); experiment: Inhibition of 12-lipoxygenase
T2 sequence (P18054 whole entry): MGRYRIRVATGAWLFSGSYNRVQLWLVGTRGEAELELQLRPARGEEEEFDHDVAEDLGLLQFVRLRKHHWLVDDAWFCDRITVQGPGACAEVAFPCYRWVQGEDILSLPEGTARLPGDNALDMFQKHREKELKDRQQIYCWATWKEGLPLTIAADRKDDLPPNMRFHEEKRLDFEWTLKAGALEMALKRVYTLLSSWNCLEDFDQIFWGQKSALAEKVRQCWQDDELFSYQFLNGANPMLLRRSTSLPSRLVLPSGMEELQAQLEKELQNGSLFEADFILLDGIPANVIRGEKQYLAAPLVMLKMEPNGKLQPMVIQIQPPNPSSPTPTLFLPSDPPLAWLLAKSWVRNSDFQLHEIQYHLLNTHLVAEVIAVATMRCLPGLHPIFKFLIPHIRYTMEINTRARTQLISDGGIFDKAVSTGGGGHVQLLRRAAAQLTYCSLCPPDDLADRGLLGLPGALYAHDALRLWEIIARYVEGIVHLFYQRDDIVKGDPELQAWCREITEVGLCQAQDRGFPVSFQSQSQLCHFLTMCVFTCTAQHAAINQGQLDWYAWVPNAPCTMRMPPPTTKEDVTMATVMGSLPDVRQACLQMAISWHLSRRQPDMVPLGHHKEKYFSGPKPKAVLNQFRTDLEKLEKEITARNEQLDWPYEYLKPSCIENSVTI

[4] = target: T3, Polyunsaturated fatty acid lipoxygenase ALOX15 (Homo sapiens, UniProt P16050); experiment: Inhibition of 15-lipoxygenase
T3 sequence (P16050 whole entry): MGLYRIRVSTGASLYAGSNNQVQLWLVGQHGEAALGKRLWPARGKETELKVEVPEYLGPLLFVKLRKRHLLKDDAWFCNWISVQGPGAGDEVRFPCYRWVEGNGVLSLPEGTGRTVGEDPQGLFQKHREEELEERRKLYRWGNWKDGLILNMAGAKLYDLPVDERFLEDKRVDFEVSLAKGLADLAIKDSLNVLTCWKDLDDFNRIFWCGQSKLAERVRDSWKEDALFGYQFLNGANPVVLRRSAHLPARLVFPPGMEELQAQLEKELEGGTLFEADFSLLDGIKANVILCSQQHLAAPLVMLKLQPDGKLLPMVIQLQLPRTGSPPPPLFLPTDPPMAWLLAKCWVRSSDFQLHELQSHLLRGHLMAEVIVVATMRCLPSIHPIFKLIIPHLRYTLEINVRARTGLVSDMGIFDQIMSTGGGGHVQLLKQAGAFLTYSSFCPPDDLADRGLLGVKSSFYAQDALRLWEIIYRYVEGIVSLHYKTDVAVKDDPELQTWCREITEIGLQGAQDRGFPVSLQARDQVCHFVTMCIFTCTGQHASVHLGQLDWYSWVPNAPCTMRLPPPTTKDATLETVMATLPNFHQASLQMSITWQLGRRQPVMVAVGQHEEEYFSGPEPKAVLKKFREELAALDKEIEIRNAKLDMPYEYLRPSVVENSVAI

[5] = target: T4, Arachidonate 5-lipoxygenase-activating protein (Homo sapiens, UniProt P20292); experiment: (§1) Inhibition of 5-lipoxygenase activating protein
T4 sequence (P20292 whole entry): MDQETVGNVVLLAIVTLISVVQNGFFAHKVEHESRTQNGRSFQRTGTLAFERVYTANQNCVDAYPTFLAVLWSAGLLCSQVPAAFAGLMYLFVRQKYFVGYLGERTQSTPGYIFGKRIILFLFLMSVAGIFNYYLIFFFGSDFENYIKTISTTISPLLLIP

[6] = Oral bioavailability in rat at 20 mg/kg; format: ADME, organism-based; conditions: in vivo
[7] = Half life in rat at 5 mg/kg, iv and 20 mg/kg, po; format: ADME, organism-based; conditions: in vivo
[8] = Cmax in rat at 5 mg/kg, iv and 20 mg/kg, po; format: ADME, organism-based; conditions: in vivo
[9] = Oral bioavailability in dog at 4 mg/kg; format: ADME, organism-based, Canis lupus familiaris; conditions: in vivo
[10] = Half life in dog at 5 mg/kg, iv and 4 mg/kg, po; format: ADME, organism-based, Canis lupus familiaris; conditions: in vivo
[11] = Cmax in dog at 5 mg/kg, iv and 4 mg/kg, po; format: ADME, organism-based, Canis lupus familiaris; conditions: in vivo
[12] = Oral bioavailability in rhesus monkey at 4 mg/kg; format: ADME, organism-based, Macaca mulatta; conditions: in vivo
[13] = Half life in rhesus monkey at 5 mg/kg, iv and 4 mg/kg, po; format: ADME, organism-based, Macaca mulatta; conditions: in vivo
[14] = Cmax in rhesus monkey at 5 mg/kg, iv and 4 mg/kg, po; format: ADME, organism-based, Macaca mulatta; conditions: in vivo
[15] = target: Voltage-gated inwardly rectifying potassium channel KCNH2 (Homo sapiens, UniProt Q12809); experiment: Displacement of labeled MK-499 from human ERG; conditions: for pKi: read-out: Ki
[16] = target: T5, Arachidonate 5-lipoxygenase-activating protein (Homo sapiens) (UniProt P20292); experiment: as §1
T5 sequence (whole entry): T4 sequence (P20292 whole entry)

Voltage-gated inwardly rectifying potassium channel KCNH2, sequence (Q12809 whole entry): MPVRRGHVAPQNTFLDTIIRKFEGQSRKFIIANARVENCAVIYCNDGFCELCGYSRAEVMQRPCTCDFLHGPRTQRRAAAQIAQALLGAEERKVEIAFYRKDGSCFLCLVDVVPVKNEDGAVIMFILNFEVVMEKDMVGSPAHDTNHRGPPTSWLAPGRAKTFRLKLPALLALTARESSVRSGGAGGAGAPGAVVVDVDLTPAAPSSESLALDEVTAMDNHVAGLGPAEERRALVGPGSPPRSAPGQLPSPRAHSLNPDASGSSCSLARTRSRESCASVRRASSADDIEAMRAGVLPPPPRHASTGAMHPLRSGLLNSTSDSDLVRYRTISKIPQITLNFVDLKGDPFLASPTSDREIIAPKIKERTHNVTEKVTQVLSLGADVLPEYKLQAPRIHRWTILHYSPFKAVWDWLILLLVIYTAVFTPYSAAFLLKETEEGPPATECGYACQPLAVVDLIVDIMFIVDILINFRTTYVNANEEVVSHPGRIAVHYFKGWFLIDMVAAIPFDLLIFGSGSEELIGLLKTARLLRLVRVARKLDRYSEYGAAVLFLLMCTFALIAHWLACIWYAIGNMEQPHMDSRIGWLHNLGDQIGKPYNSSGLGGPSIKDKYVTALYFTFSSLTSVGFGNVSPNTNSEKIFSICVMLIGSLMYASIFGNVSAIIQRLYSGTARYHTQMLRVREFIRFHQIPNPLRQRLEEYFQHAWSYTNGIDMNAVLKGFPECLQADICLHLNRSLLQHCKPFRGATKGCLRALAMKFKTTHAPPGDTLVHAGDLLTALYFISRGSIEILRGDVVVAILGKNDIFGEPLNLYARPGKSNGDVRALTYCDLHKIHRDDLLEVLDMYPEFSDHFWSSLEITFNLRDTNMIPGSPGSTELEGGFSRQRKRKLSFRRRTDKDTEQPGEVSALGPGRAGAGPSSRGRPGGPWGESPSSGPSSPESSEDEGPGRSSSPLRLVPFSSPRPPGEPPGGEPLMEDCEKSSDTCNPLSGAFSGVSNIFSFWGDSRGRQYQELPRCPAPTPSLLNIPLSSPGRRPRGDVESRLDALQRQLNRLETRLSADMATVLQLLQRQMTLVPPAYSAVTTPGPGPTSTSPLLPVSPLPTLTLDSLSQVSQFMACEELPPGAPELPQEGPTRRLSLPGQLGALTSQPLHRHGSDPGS

**Q.** With CC[C@](O)(c1cn(Cc2ccc3c(-c4ccc(F)cc4)c(C(N)=O)sc3c2)nn1)C(F)(F)F as the compound, how does the pIC50 [1] read?
**A.** 7.26

**Q.** What about the pIC50 [2] of the same compound?
**A.** 7.68

**Q.** And the pIC50 [3]?
**A.** < 4.70

**Q.** And the pIC50 [4]?
**A.** < 4.70

**Q.** What about the pIC50 [5] of the same compound?
**A.** < 4.70

**Q.** And the bioavailability [6]?
**A.** 114%

**Q.** And the half-life [7]?
**A.** 7.9 h

**Q.** And the Cmax [8]?
**A.** 19.4 µM

**Q.** And the bioavailability [9]?
**A.** 120%

**Q.** And the half-life [10]?
**A.** 29 h

**Q.** And the Cmax [11]?
**A.** 6.7 µM

**Q.** What about the bioavailability [12] of the same compound?
**A.** 66%

**Q.** And the half-life [13]?
**A.** 22 h

**Q.** What about the Cmax [14] of the same compound?
**A.** 1.4 µM

**Q.** And the pKi [15]?
**A.** 4.89

**Q.** With CC[C@@](O)(c1cn(Cc2ccc3c(-c4ccc(F)cc4)c(C(N)=O)sc3c2)nn1)C(F)(F)F as the compound, how does the pIC50 [1] read?
**A.** 5.94

**Q.** What about the pIC50 [2] of the same compound?
**A.** 6.81

**Q.** What about the pKi [15] of the same compound?
**A.** 4.96

**Q.** With CCC(O)(c1cn(Cc2ccc3c(-c4ccccc4)csc3c2)nn1)C(F)(F)F (stereo not given) as the compound, how does the pIC50 [1] read?
**A.** 7.40

**Q.** What about the pIC50 [2] of the same compound?
**A.** 6.22

**Q.** And the Ki [15]?
**A.** Not Active

**Q.** With CCC(O)(c1cn(Cc2ccc3c(-c4ccccc4)c(C(C)=O)sc3c2)nn1)C(F)(F)F (stereo not given) as the compound, how does the pIC50 [1] read?
**A.** 7.96

**Q.** What about the pIC50 [2] of the same compound?
**A.** 7.08

**Q.** And the pKi [15]?
**A.** 5.36

**Q.** With CCC(O)(c1cn(Cc2ccc3c(-c4ccccc4)c(C(C)(C)O)sc3c2)nn1)C(F)(F)F (stereo not given) as the compound, how does the pIC50 [1] read?
**A.** 6.70

**Q.** What about the pIC50 [2] of the same compound?
**A.** 6.41

**Q.** What about the pKi [15] of the same compound?
**A.** 5.59

**Q.** With CC[C@](O)(c1cn(Cc2ccc3c(-c4cccc(F)c4)c(C(N)=O)sc3c2)nn1)C(F)(F)F as the compound, how does the pIC50 [1] read?
**A.** 7.41

**Q.** What about the pIC50 [2] of the same compound?
**A.** 7.51

**Q.** And the pKi [15]?
**A.** 4.85

**Q.** What does the source list for CCC(O)(c1cn(Cc2ccc3c(-c4ccccc4)c(C(=O)OC)sc3c2)nn1)C(F)(F)F (stereo not given)?
**A.** pIC50 [1]: 8.10; pIC50 [2]: 6.59

**Q.** With CCC(O)(c1cn(Cc2ccc3c(-c4ccccc4)c(C(=O)NC)sc3c2)nn1)C(F)(F)F (stereo not given) as the compound, how does the pIC50 [1] read?
**A.** 6.65

**Q.** What about the pIC50 [2] of the same compound?
**A.** 6.58

**Q.** With CCC(O)(c1cn(Cc2ccc3c(-c4ccccc4)c(C(=O)O)sc3c2)nn1)C(F)(F)F (stereo not given) as the compound, how does the pIC50 [1] read?
**A.** < 5.00

**Q.** What about the pIC50 [2] of the same compound?
**A.** < 4.70

**Q.** What about the pKi [15] of the same compound?
**A.** < 4.70

**Q.** Which results are given for CCC(O)(c1cn(Cc2ccc3c(-c4ccccc4)c(CO)sc3c2)nn1)C(F)(F)F (stereo not given)?
**A.** pIC50 [1]: 7.72; pIC50 [2]: 7.19; pKi [15]: 4.89

**Q.** With CCC(O)(c1cn(Cc2ccc3c(-c4ccccc4)c(C(N)=O)sc3c2)nn1)C(F)(F)F (stereo not given) as the compound, how does the pIC50 [1] read?
**A.** 7.26

**Q.** And the pIC50 [2]?
**A.** 7.15

**Q.** With CC[C@](O)(c1cn(Cc2ccc3c(-c4ccccc4)c(C(N)=O)sc3c2)nn1)C(F)(F)F as the compound, how does the pIC50 [1] read?
**A.** 7.55

**Q.** What about the pIC50 [2] of the same compound?
**A.** 7.49

**Q.** Which results are given for CCC(O)(c1cn(Cc2ccc3c(-c4ccccc4)c(C(=O)N(C)C)sc3c2)nn1)C(F)(F)F (stereo not given)?
**A.** pIC50 [1]: 5.72; pIC50 [2]: 5.74; pKi [15]: < 4.70

**Q.** With CCC(O)(c1cn(Cc2ccc3c(-c4ccccc4)c(C(C)O)sc3c2)nn1)C(F)(F)F (stereo not given) as the compound, how does the pIC50 [1] read?
**A.** 7.06

**Q.** What about the pIC50 [2] of the same compound?
**A.** 6.79

**Q.** What about the pKi [15] of the same compound?
**A.** 5.42

**Q.** With CC[C@](O)(c1cn(Cc2ccc3c(-c4ccc(F)cc4)c(C(=O)O)sc3c2)nn1)C(F)(F)F as the compound, how does the pIC50 [1] read?
**A.** < 5.00

**Q.** What about the pIC50 [2] of the same compound?
**A.** < 4.70

**Q.** What about the inhibition [16] of the same compound?
**A.** inactive

**Q.** And the “inhibition (INH)” value ([15]; human)?
**A.** Not Active

**Q.** What about the pKi [15] of the same compound?
**A.** < 4.70
